Measured values taken from US20190302102A1, “COMBINATION THERAPIES FOR TREATING BIPOLAR DISORDER, AND METHODS FOR USING THE SAME” (PsychNostics, LLC, priority 2016, published 2019).

What was measured:
[1] = test system: whole blood cells from BD patients; assay: MPR™ (Membrane Potential Ratio) test, agents added to the test buffer in vitro; type: cell-based, human; settings: 1 mM Li alone in EtOH test buffer, whole blood of BD patients
Protocol: The present inventor developed a ratiometric assay to measure the ratio of the membrane potential called Membrane Potential Ratio (MPR™), using a reference buffer and a test buffer. […] The reference buffer may contain NaCl, CaCl2 and glucose at physiological concentrations. The buffering agent HEPES was also added to the buffer to maintain the pH. […] The test buffer may contain K^+ or no K^+. The membrane potentials were measured in both the buffers and the ratio of the MP in the test buffer to the MP in the reference buffer was designated the “Membrane Potential Ratio” (MPR™).
The membrane potentials of whole blood cells can be measured using two different buffers in a plate reader. The mean MPR™ value is the ratio between the membrane potential of a patient's cells in the test buffer as the numerator and that in the reference buffer as the denominator (for example, determined by statistical analysis of multiple measurements, using the ANOVA and the multiple statistical regression analysis).
As mentioned herein, MPR™ is the ratio between the membrane potential (MP) in the test buffer and that in the reference buffer. In these experiments, the reference buffer contained NaCl, CaCl2, glucose and HEPES, whereas the test buffer contained ethyl alcohol (EtOH) in addition to NaCl, CaCl2, glucose and HEPES. Lithium, inositol and carbachol were added to the test buffer in these experiments.
Whole blood samples were obtained from BD patients, and a portion from each blood sample was suspended in the test buffer for 20 minutes, and a portion from each blood sample was suspended in the reference buffer for 20 minutes. After this incubation, the samples were centrifuged for five minutes, drained, then re-suspended in their respective buffer (test or reference buffer). These samples were then distributed in 96 well plates, and tested in a plate reader (FLx 800 manufactured by BioTek).

BD patients = settings: cited from earlier work
[2] = blood plasma; Freudenreich et al. 2009; cited from earlier work
BD patient = assay: Clinical case observation of tolerability (Example 4); type: in vivo, human; settings: very low dosage, given for anxiety; person with BD
Excerpt: At the time of their first blood draw, they reported having been off of their medications for BD for one month, but had not become clinically symptomatic, and tested in the BD range (“(Before)” of FIG. 4). When retested, they had been taking lithium, quetiapine, and mirtazapine for some time and had been back at work. […] Subsequently, they reported anxiety, occurring while they continued taking lithium, quetiapine, and mirtazapine. They thought they might be experiencing a return of bipolar symptomatology, but this was determined to possibly be situational instead. They had some awareness of issues with their fiancé and this awareness was “bolstered” by the notion that their MPR™ test had been in the normal range on their medication regimen not so many months before. […] They wanted a medication to help their through what they were experiencing, but could not be given benzodiazepines because of a history of difficulty with alcohol. Very low dosage perphenazine was given, in keeping with its old indication for neurotic anxiety.

SMILES: [Li] [Li, lithium]
- MPR™ value ([1]; Example 1, FIG. 1): 0.814
- MPR™ value ([1]; Example 2, FIG. 2): 0.757
- MPR™ value ([1]; Example 3, FIG. 3): 0.780
- side effects at the therapeutic level (BD patients; at therapeutic concentration of 1.2 mM): nausea, diarrhea, dizziness, muscle weakness, fatigue, and a dazed feeling
- therapeutic level (BD patients; lithium level in BD therapy): around 1.2 mM
- toxic level (BD patients; lithium level in BD therapy): about 2 mM

SMILES: CN1CCN(C2=Nc3cc(Cl)ccc3Nc3ccccc32)CC1 [clozapine]
- presently used therapeutic levels [2]: 200 to 1000 ng/mL

SMILES: OCCN1CCN(CCCN2c3ccccc3Sc3ccc(Cl)cc32)CC1 [perphenazine]
- Side effect leading to discontinuation (BD patient): blurred vision
